Data from patent US20110130437A1, “SALT FORMS OF A 6-FLUORO-1,2-DIHYDRO-2-OXO-3H-INDOL-3-YLIDENE DERIVATIVE, PROCESS FOR THEIR MANUFACTURE AND PHARMACEUTICAL COMPOSITIONS CONTAINING SAME” (BOEHRINGER INGELHEIM INTERNATIONAL GMBH, priority 2008, published 2011).
Entries after “also recorded” stand apart in the source; their conditions may differ.

Key:
Type in all cases: physicochemical
[1] = Thermal gravimetry (TG) loss of weight; settings: for loss of weight as measured by thermal gravimetry (TG): crystalline salt forms
Method: The crystalline form of the monohydrochloride salt according to the invention is further characterised by a weight loss of ca. 1.6-1.8% water up to 130° C., as determined by Thermal […]). Under standard conditions, the monohydrochloride salt form of the compound according to the invention is present in the form of the hemihydrate, from which water escapes at a temperature of about 130° C. The TG diagram is also depicted in FIG. 1. For example, the sodium and tartrate salt forms have less good crystallinity properties, which affects the stability of the drug substance. […] Thus, the chloride, succinate and bromide salt forms have unexpectedly better crystalline properties for pharmaceutical development than the sodium and tartrate salt forms.

[2] = Hygroscopicity of the salt forms; settings: for hygroscopicity: in words, judged from TG loss of weight
Excerpt: The monohydrochloride salt form of the compound according to the invention, namely 4-[(Z)-[[4-[(dimethylamino)methyl]phenyl]amino](6-fluoro-1,2-dihydro-2-oxo-3H-indol-3-ylidene)methyl]-benzenepropanoic acid monohydrochloride, is a yellow crystalline powder with irregular shaped crystals. […] For example, the sodium and tartrate salt forms have less good crystallinity properties, which affects the stability of the drug substance. […] Thus, the chloride, succinate and bromide salt forms have unexpectedly better crystalline properties for pharmaceutical development than the sodium and tartrate salt forms.

[3] = Solubility in aqueous media over the pH range; settings: over a wide pH-range
Excerpt: (§1) Furthermore, although all the above mentioned salt forms are characterized by a low solubility over almost the whole pH range, the chloride salt form presents the advantage of a better dissolution rate.

[4] = Intrinsic dissolution rate
Excerpt: as §1

[5] = Crystallinity after intensive milling or compression
Excerpt: The monohydrochloride salt form of the compound according to the invention, namely 4-[(Z)-[[4-[(dimethylamino)methyl]phenyl]amino](6-fluoro-1,2-dihydro-2-oxo-3H-indol-3-ylidene)methyl]-benzenepropanoic acid monohydrochloride, is a yellow crystalline powder with irregular shaped crystals.

Row | loss of weight as measured by thermal gravimetry (TG) [1] | hygroscopicity [2] | solubility in aqueous media [3] | intrinsic dissolution rate [4] | weight loss of water, determined by Thermal Gravimetry (TG) ([1]; up to 130° C., crystalline form) | hygroscopicity ([2]; monohydrochloride) | change in crystallinity [5] | SMILES | hygroscopicity ([2]; listed as monohydrochloride salt form, monohydrochloride) | change in crystal modification ([2]; on moisture uptake (slightly hygroscopic))
1 | ca. 15% | strong hygroscopicity |  |  |  |  |  | CN(C)Cc1ccc(N/C(=C2\C(=O)Nc3cc(F)ccc32)c2ccc(CCC(=O)O)cc2)cc1 [sodium, 4-[(Z)-[[4-[(dimethylamino)methyl]phenyl]amino](6-fluoro-1,2-dihydro-2-oxo-3H-indol-3-ylidene)methyl]-benzenepropanoic acid] |  | 
2 | ca. 4.3% | strong hygroscopicity |  |  |  |  |  | CN(C)Cc1ccc(N/C(=C2\C(=O)Nc3cc(F)ccc32)c2ccc(CCC(=O)O)cc2)cc1 [tartrate, 4-[(Z)-[[4-[(dimethylamino)methyl]phenyl]amino](6-fluoro-1,2-dihydro-2-oxo-3H-indol-3-ylidene)methyl]-benzenepropanoic acid] |  | 

More lines, now with the values behind:

Row | SMILES | loss of weight as measured by thermal gravimetry (TG) [1] | hygroscopicity [2] | solubility in aqueous media [3] | intrinsic dissolution rate [4] | weight loss of water, determined by Thermal Gravimetry (TG) ([1]; up to 130° C., crystalline form) | hygroscopicity ([2]; monohydrochloride) | change in crystallinity [5] | hygroscopicity ([2]; listed as monohydrochloride salt form, monohydrochloride) | change in crystal modification ([2]; on moisture uptake (slightly hygroscopic))
3 | CN(C)Cc1ccc(N/C(=C2\C(=O)Nc3cc(F)ccc32)c2ccc(CCC(=O)O)cc2)cc1 [bromide, 4-[(Z)-[[4-[(dimethylamino)methyl]phenyl]amino](6-fluoro-1,2-dihydro-2-oxo-3H-indol-3-ylidene)methyl]-benzenepropanoic acid] | ca. 2.2% | slight hygroscopicity | rather low solubility | very slow |  |  |  |  | 
4 | CN(C)Cc1ccc(N/C(=C2\C(=O)Nc3cc(F)ccc32)c2ccc(CCC(=O)O)cc2)cc1.Cl [monohydrochloride, 4-[(Z)-[[4-[(dimethylamino)methyl]phenyl]amino](6-fluoro-1,2-dihydro-2-oxo-3H-indol-3-ylidene)methyl]-benzenepropanoic acid monohydrochloride] | ca. 1.7% |  | rather low solubility | acceptable fast | 1.6-1.8% | slight hygroscopicity | No significant change in crystallinity | slightly hygroscopic; also recorded: slight hygroscopicity | no change in crystal modification is observed
5 | CN(C)Cc1ccc(N/C(=C2\C(=O)Nc3cc(F)ccc32)c2ccc(CCC(=O)O)cc2)cc1 [succinate, 4-[(Z)-[[4-[(dimethylamino)methyl]phenyl]amino](6-fluoro-1,2-dihydro-2-oxo-3H-indol-3-ylidene)methyl]-benzenepropanoic acid] | ca. 1.5% | slight hygroscopicity | rather low solubility | very slow |  |  |  |  | 
